Columns and labels:
[1] = test system: powdery mildew (Blumeria graminis f. sp. hordei); test: Curative greenhouse trial with Epoxiconazole on barley; format: in vivo; details: barley leaf segments (F and F-1) on benzimidazole agar, inoculation 2 days prior to application, Epoxiconazole 5 g/ha, adjuvant 50 ml/ha, assessment 14 DAT
Method: (§1) The influence of the adjuvants was tested separately in a curative and protective greenhouse trial on barley. In each case, barley was cultivated in a substrate “Frustorder Erde” for three weeks with three plants per pot. Each treatment was replicated 14 times. The adjuvant dose rate in each treatment was 50 ml/ha. The assessment of the infection rate was conducted by a trained biologist.
(§2) The adjuvants used in the trials are di-isononanyl-adipate cyclohexanedicarboxylic acid-isononanol-diester, 1,2-cyclohexanediol-di-isononate, di-isononanyl-3EO-adipate, cyclohexanedicarboxylic acid-isononanol-3EO-diester and 1,2-cyclohexanediol-6EO-di-isononate.
An Epoxiconazole SC 250 was used. Inoculation of the leaves with powdery mildew (Blumeria graminis f. sp. hordei) was done 2 days prior to application of the Epoxiconazole formulation. From the stem, 15 leaf segments were cut off with a length of 10 cm using each the flag leaf (F) and the 2nd leaf (F-1). Altogether, the leaves of each were placed on benzimidazole agar i.e. 0.5% Agar with 40 ppm benzimidazole. The concentration of Epoxiconazole for the leaf application was 5 g/ha. Assessment was done 14 days after treatment (14 DAT) of the efficacy against powdery mildew by counting the mildew pustules per leaf on a length of 7 cm.

[2] = test system: powdery mildew (Blumeria graminis f. sp. hordei); test: Protective greenhouse trial with Azoxystrobin on barley; format: in vivo; details: barley leaf segments (F and F-1) on agar cut 4 h after application, then inoculated, Azoxystrobin 5 g/ha, adjuvant 50 ml/ha, incubation time 10 d
Method: as §1, §2
4 h after application with the equivalent of 5 g/ha Azoxystrobin, leaf segments were cut off at a length of 7 cm from the stem. 15 leaves of each the F and the F-1 leaf were placed on agar. After the inoculation with powdery mildew (Blumeria graminis f. sp. hordei), the incubation time was 10 d. The assessment of the infection rate was conducted by a trained biologist.

Row | SMILES | Powdery mildew infestation (%) [1] [%] | Powdery mildew infestation (%) [2] [%]
1 | Fc1ccc([C@]2(Cn3cncn3)O[C@H]2c2ccccc2Cl)cc1 (racemic) [Epoxiconazole] | 33 | –
2 | CO/C=C(/C(=O)OC)c1ccccc1Oc1cc(Oc2ccccc2C#N)ncn1 [Azoxystrobin] | – | 36
